Measured values from US20110041725A1, “ANTICOAGULANTS AS ANTIFOULING AGENTS” (priority 2007, published 2011).
“Also recorded” adds a separate entry of the source.

Assays:
[1] = test system: barnacle cement polymerization; assay: Barnacle cement polymerization in presence of anticoagulants, protein profile by SDS-PAGE; type: biochemical; conditions: for inhibition of polymerization of barnacle cement (number and intensity of proteins): 2 μl anticoagulant added to 1 μl unpolymerized cement of thick, gummy phenotype barnacle, 2 minutes, versus distilled water
Method: (§1) FIG. 6. Protein profile for barnacle cement polymerized in the presence of distilled water (control) or one of 5 anticoagulants heparin, warfarin, trypsin inhibitor, EGTA or EDTA. Each peak represents an individual protein. For each treatment, 2 μl of either distilled water or anticoagulant was added to 1 μl unpolymerized cement taken from a thick, gummy phenotype barnacle. Polymerization was allowed to proceed for 2 minutes. Samples were analyzed with SDS-PAGE using a 4-20% acrylamide gel. The gel was stained with Coomassie Blue and analyzed using Scion Image.
as §1, with “Each” for “FIG. 6. Protein profile for barnacle cement polymerized in the presence of distilled water (control) or one of 5 anticoagulants heparin, warfarin, trypsin inhibitor, EGTA or EDTA. Each”

[2] = test system: serine proteases active in barnacle cement polymerization; assay: SDS-PAGE protein signature of unpolymerized barnacle glue with and without heparin; type: biochemical; conditions: reducing SDS-PAGE, 4-20% acrylamide gel, Coomassie Blue
Method: Techniques were developed and performed to harvest unpolymerized barnacle cement in microliter quantities. This enabled analysis of the proteins in barnacle cement using SDS-PAGE, which separates proteins based on size. SDS-PAGE provides a protein signature. SDS-PAGE was conducted under reducing conditions on a 4-20% acrylamide gradient gel in the presence and absence of heparin to determine any associated changes in protein signature (See FIG. 10). […] A precast, 4-20% acrylamide gel was used and stained with Coomassie Blue. […] The number of protein bands in the 85-115 kDa range is increased and of particular note, the 24 kDa protein and all the smaller peptides have disappeared in the presence of heparin.

barnacles = assay: Barnacle reattachment assay (removal force); type: in vivo
Method: A barnacle reattachment assay was performed in the presence and absence of heparin. The barnacle reattachment assay (Rittschof et al., under review) allows for rapid assessment of barnacle adhesive strength. In this assay barnacles are grown on non-toxic silicone substrates. Barnacles are removed from the silicone surface using a hand-held mechanical force gauge. Removed barnacles are then placed on another surface to which they are allowed to reattach for one week. As cement production is continuous throughout a barnacle's life, reattachment is possible and strength of adhesion after one week is nearly identical to initial strength of adhesion (when removed from, and reattached to the same silicone substrate). This assay was utilized to determine if a coating on a surface decreases strength of adhesion by removing a barnacle from silicone and allowing it to reattach to test and control surfaces. Reattachment trials for heparin were conducted by removing a barnacle from a silicone panel and reattaching it to clean glass panels or heparin coated glass panels. […] The reattachment removal force for the barnacles is represented by the gray bars. Barnacles were reattached to glass panels coated with 0 (control), 0.1, 1.0 or 10.0 mg ml^−1 heparin for 7 days. The removal force decreased for all barnacles on heparin treatments. […] This pattern was shown on both heparin coated silicone and heparin coated glass. […] The same group of barnacles was successively reattached to the same treatment for 1, 2, 3 and 4 days (in that order); n=10 barnacles for dH2O and sucrose, n=10 for heparin 1 day, and n=9 for heparin 2, 3 and 4 days. […] Statistical comparisons were not conducted on 2, 3, and 4 day trials as there is a potential for the results to be influenced by previous reattachment trials.

Question: For `O=C(O)CN(CCN(CC(=O)O)CC(=O)O)CC(=O)O` [EDTA], which “inhibition of polymerization of barnacle cement (number and intensity of proteins)” value (shortened to “inhibition”) [1] is on record?
Answer: effectively inhibit the polymerization of barnacle cement; also recorded: inhibited

Question: For `O=C(O)CN(CCOCCOCCN(CC(=O)O)CC(=O)O)CC(=O)O` [EGTA], which “inhibition” value [1] is on record?
Answer: effectively inhibit the polymerization of barnacle cement; also recorded: inhibited

Question: `CC(=O)CC(c1ccccc1)c1c(O)c2ccccc2oc1=O` (stereo not drawn) [warfarin] was tested. Which “inhibition” value [1] did it give?
Answer: effectively inhibit the polymerization of barnacle cement

Question: With heparin as the compound, how does the “bands smaller than 31 kDa (serine proteases and their peptide products)” value [2] read?
Answer: do not appear when heparin is added

Question: And the “protein signature of barnacle glue” value [2]?
Answer: significantly different

Question: And the “mean removal force versus sucrose” value (barnacles; 1 mg ml^-1 coated T2 silicone, 1 day reattachment, p<0.05)?
Answer: significant difference from the sucrose results

Question: What about the “reattachment removal force versus initial removal force” value (barnacles; 10 mg ml^-1 heparin coated glass, 7 days, paired samples t-test p=0.017) of the same compound?
Answer: highly significant difference from initial removal force

Question: What about the reattachment removal force (barnacles; glass panels coated with 0.1, 1.0 or 10.0 mg ml^-1 heparin, reattached 7 days) of the same compound?
Answer: decreased

Question: And the “force required for removal as concentration increases” value (barnacles; heparin 0.1 to 10 mg ml^-1, heparin coated silicone and heparin coated glass)?
Answer: stepwise decrease

Question: What about the “removal force over time reattached” value (barnacles; heparin coated surfaces, reattached 1, 2, 3 and 4 days) of the same compound?
Answer: no increase in removal force with increasing time reattached

Question: What about the “inhibitory effect on cement polymerization compared with the other anticoagulant compounds tested” value [1] of the same compound?
Answer: most extensive and consistent inhibitory effect

Question: What about the “inhibition” value [1] of the same compound?
Answer: effectively inhibit the polymerization of barnacle cement
